Test results published in article PMC3362524 (The Journal of General Physiology, 2012).
Where a chain is given by its changes, count along the chain named. Read-outs that look alike come from different tables or passages of the source.

Columns and labels:
Assay type in all cases: cell-based
[1] = molecular target: T1, NaChBac (voltage-gated sodium channel from Bacillus halodurans) (Halalkalibacterium halodurans, UniProt Q9KCR8)
T1 sequence (Q9KCR8 1-274): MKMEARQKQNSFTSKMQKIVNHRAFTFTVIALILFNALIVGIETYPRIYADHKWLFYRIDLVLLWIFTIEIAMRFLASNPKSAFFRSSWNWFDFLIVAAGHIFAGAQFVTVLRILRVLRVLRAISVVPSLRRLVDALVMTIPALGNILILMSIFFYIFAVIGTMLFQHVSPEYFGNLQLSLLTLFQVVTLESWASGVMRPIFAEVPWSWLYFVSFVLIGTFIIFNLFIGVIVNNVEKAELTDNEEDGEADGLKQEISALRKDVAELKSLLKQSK

[2] = molecular target: T2, NaChBac (voltage-gated sodium channel from Bacillus halodurans) (Halalkalibacterium halodurans, UniProt Q9KCR8, T220A); experiment: patch clamp in HEK-293 cells, peak current concentration response
T2 sequence (Q9KCR8 1-274 T220A): T1 sequence (Q9KCR8 1-274) with T220A

[3] = molecular target: T1, NaChBac (voltage-gated sodium channel from Bacillus halodurans); remark: listed apart in the source

IC50 [1] [µM] | Structure (SMILES) | IC50 [2] [µM] | IC50 [3] [µM]
650 | CCOC(=O)c1ccc(N)cc1 [benzocaine] | – | –
– | CCN(CC)CC(=O)Nc1c(C)cccc1C [lidocaine] | 765 ± 76.3 | ~260
– | COc1ccccc1OCC(O)CN1CCN(CC(=O)Nc2c(C)cccc2C)CC1 (stereo not shown) [ranolazine] | – | ~60
